The text below walks through data of ChEMBL document CHEMBL5634099, “Pyrrole-thiazolidinone hybrids as a new structural class of broad-spectrum anti-infectives” (Eur J Med Chem, 2023).

Converted amounts (≈) assume the structure as drawn.

Assay type in all cases: functional
One assay concerns Escherichia coli. The experiment in a line: Antibacterial activity against Escherichia coli ATCC 25922 assessed as bacterial growth inhibition incubated for 16 to 18 hrs by CLSI based susceptibility testing method. To be noted: time 16-18 hrs.
The test system of another assay is Staphylococcus aureus. Description: Antibacterial activity against Staphylococcus aureus ATCC 29213 assessed as bacterial growth inhibition incubated for 16 to 18 hrs by CLSI based susceptibility testing method. To be noted: time 16-18 hrs.
The next assay has as its system Klebsiella pneumoniae. Description: Antibacterial activity against Klebsiella pneumoniae BAA 1705 assessed as bacterial growth inhibition incubated for 16 to 18 hrs by CLSI based susceptibility testing method. To be noted: time 16-18 hrs.
The subject of the next assay is Acinetobacter baumannii. The experiment in a line: Antibacterial activity against Acinetobacter baumannii BAA 1605 assessed as bacterial growth inhibition incubated for 16 to 18 hrs by CLSI based susceptibility testing method. To be noted: time 16-18 hrs.
For a further assay, the system named is Pseudomonas aeruginosa. Description: Antibacterial activity against Pseudomonas aeruginosa ATCC 27853 assessed as bacterial growth inhibition incubated for 16 to 18 hrs by CLSI based susceptibility testing method. To be noted: time 16-18 hrs.
Assay [1] deals with Mycobacterium tuberculosis. Description: Antimycobacterial activity against Mycobacterium tuberculosis H37Rv ATCC 27294 assessed as bacterial growth inhibition incubated for 7 days by resazurin dye based assay. To be noted: H37Rv ATCC 27294, 168 h, time 7 day.
Assay [2] has as its system Mycobacteroides abscessus. The experiment in a line: Antimycobacterial activity against Mycobacterium abscessus ATCC 19977 assessed as bacterial growth inhibition incubated for 7 days by resazurin dye based assay. To be noted: ATCC 19977, 168 h, time 7 day.
The test system of assay [3] is Mycolicibacterium fortuitum. The experiment in a line: Antimycobacterial activity against Mycobacterium fortuitum ATCC 6841 assessed as bacterial growth inhibition incubated for 7 days by resazurin dye based assay. To be noted: ATCC 6841, 168 h, time 7 day.
Another assay deals with Mycobacteroides chelonae. The experiment in a line: Antimycobacterial activity against Mycobacteroides chelonae ATCC 35752 assessed as bacterial growth inhibition incubated for 7 days by resazurin dye based assay. To be noted: ATCC 35752, 168 h, time 7 day.

`Cc1cc(/C=C2\S/C(=N/c3nccs3)NC2=O)c(C)n1-c1ccc([N+](=O)[O-])cc1`: the MIC (in the assay on Escherichia coli; with Staphylococcus aureus; in the assay on Klebsiella pneumoniae; in the assay with Acinetobacter baumannii; with Pseudomonas aeruginosa; in assay [1]) was more than 64 µg/mL throughout. For the same compound, the MIC (in assay [2]; in [3]; in the assay on Mycobacteroides chelonae) was more than 64 µg/mL in each case.
For `Cc1cc(/C=C2\S/C(=N/c3nccs3)NC2=O)c(C)n1-c1ccccc1`, the MIC in the assay with Escherichia coli is more than 64 µg/mL; with Staphylococcus aureus, 2 µg/mL (≈ 5.26 µM); in the assay on Klebsiella pneumoniae, more than 64 µg/mL; with Acinetobacter baumannii, more than 64 µg/mL; in the assay on Pseudomonas aeruginosa, more than 64 µg/mL; in [1] it was 8 µg/mL (≈ 21 µM). The MIC (in assay [2]; in assay [3]; with Mycobacteroides chelonae) was more than 64 µg/mL each time.
In the case of `Cc1cc(/C=C2\S/C(=N/c3nccs3)NC2=O)c(C)n1-c1cccc(Cl)c1`, the MIC is more than 64 µg/mL in the assay with Escherichia coli; 8 µg/mL (≈ 19.3 µM) in the assay on Staphylococcus aureus; more than 64 µg/mL in the assay with Klebsiella pneumoniae; more than 64 µg/mL in the assay with Acinetobacter baumannii; more than 64 µg/mL in the assay on Pseudomonas aeruginosa; more than 64 µg/mL in assay [1]. Also, the MIC (in assay [2]; in assay [3]; with Mycobacteroides chelonae) was more than 64 µg/mL in each case.
`Cc1cc(/C=C2\S/C(=N/c3nccs3)NC2=O)c(C)n1-c1ccc(C#N)c(Cl)c1`: the MIC in the assay on Escherichia coli is more than 64 µg/mL; in the assay on Staphylococcus aureus, more than 64 µg/mL; with Klebsiella pneumoniae, more than 64 µg/mL; in the assay on Acinetobacter baumannii, more than 64 µg/mL; with Pseudomonas aeruginosa, more than 64 µg/mL; in assay [1] it was 16 µg/mL (≈ 36.4 µM). Further, the MIC (in assay [2]; in [3]; in the assay with Mycobacteroides chelonae) was more than 64 µg/mL each time.
Take `Cc1nc(/N=C2\NC(=O)/C(=C/c3cc(C)n(-c4ccccc4Br)c3C)S2)sc1C`: the MIC was more than 64 µg/mL with Escherichia coli; more than 64 µg/mL in the assay with Staphylococcus aureus; more than 64 µg/mL in the assay on Klebsiella pneumoniae; more than 64 µg/mL in the assay on Acinetobacter baumannii; more than 64 µg/mL in the assay with Pseudomonas aeruginosa; 4 µg/mL (≈ 8.21 µM) in assay [1]. The MIC (in assay [2]; in [3]; with Mycobacteroides chelonae) was more than 64 µg/mL throughout.
`Cc1cc(/C=C2\S/C(=N/c3nccs3)NC2=O)c(C)n1-c1ccc([N+](=O)[O-])c(C(F)(F)F)c1`: the MIC (with Escherichia coli; with Staphylococcus aureus; in the assay with Klebsiella pneumoniae; in the assay on Acinetobacter baumannii; in the assay with Pseudomonas aeruginosa; in [1]) was more than 64 µg/mL each time. Moreover, the MIC (in assay [2]; in [3]; with Mycobacteroides chelonae) was more than 64 µg/mL each time.
As to `Cc1nc(/N=C2\NC(=O)/C(=C/c3cc(C)n(-c4ccc(F)cc4)c3C)S2)sc1C`, the MIC in the assay on Escherichia coli was more than 64 µg/mL; with Staphylococcus aureus, more than 64 µg/mL; with Klebsiella pneumoniae, more than 64 µg/mL; with Acinetobacter baumannii it was more than 64 µg/mL; with Pseudomonas aeruginosa, more than 64 µg/mL; in assay [1], 16 µg/mL (≈ 37.5 µM). The MIC (in [2]; in [3]; with Mycobacteroides chelonae) was more than 64 µg/mL in each case.
As for `Cc1ccc(-n2c(C)cc(/C=C3\S/C(=N/c4nc(C)c(C)s4)NC3=O)c2C)cc1`, the MIC (in the assay with Escherichia coli; in the assay on Staphylococcus aureus; in the assay with Klebsiella pneumoniae; in the assay with Acinetobacter baumannii; in the assay with Pseudomonas aeruginosa; in assay [1]) was more than 64 µg/mL each time. In addition, the MIC (in assay [2]; in [3]; in the assay on Mycobacteroides chelonae) was more than 64 µg/mL throughout.
On to `Cc1nc(/N=C2\NC(=O)/C(=C/c3cc(C)n(-c4ccc([N+](=O)[O-])c(C(F)(F)F)c4)c3C)S2)sc1C`, for which the MIC was more than 64 µg/mL in the assay on Escherichia coli; 16 µg/mL (≈ 30.7 µM) with Staphylococcus aureus; more than 64 µg/mL in the assay with Klebsiella pneumoniae; more than 64 µg/mL in the assay on Acinetobacter baumannii; more than 64 µg/mL in the assay on Pseudomonas aeruginosa; more than 64 µg/mL in [1]. Also, the MIC (in assay [2]; in assay [3]; in the assay with Mycobacteroides chelonae) was more than 64 µg/mL in each case.
